Where two headings read alike, the source gives them in different places.
Assays:
[1] = biological target: T1, Brd2(BD1) (Homo sapiens, UniProt P25440); test: HTRF BET selectivity profile, Brd2(BD1); assay type: binding; settings: for IC50: read-out: Brd2(BD1) IC50; for Ratio 2-1 vs 2-2: selectivity Brd2(BD1) vs Brd2(BD2), HTRF IC50
T1 construct: GST tagged bromodomain proteins were purchased from BPS Bioscience; purchased BPS Bioscience
Protocol: (§1) HTRF assays were performed in white 384 Well Small Volume™ HiBase Polystyrene Microplates (Greiner) with a total working volume of 20 μL. Compounds were dispensed, with 100 nL per well (0.5% final DMSO), from a concentration stock of 10 mM in 100% DMSO and with serial DMSO dilutions, using an Echo® 550 robot from the Access Labcyte platform (Labcyte) and based on the transfer of liquid by acoustic wave. Then, 19.5 μL of buffer is added, using a Multidrop Combi (Thermo Fisher Scientific). […] All HTRF reagents (donor and acceptor) were purchased from CisBio Bioassays and reconstituted according to the supplier protocols. The peptide was purchased from Genic Bio Synthetic. The BRD4(1) protein was produced and purified in the laboratory.
(§2) Percentage of inhibition was calculated using the following equation: % inhibition=[(compound signal)−(min signal)]/[(max signal)−(min signal)]*100, where ‘max signal’ is the signal ratio with the compound vehicle alone (DMSO) and ‘min signal’ the signal ratio without peptide.
(§3) Selectivity profiles of bromodomain inhibitors were performed as described in HTRF screen section. […] HTRF detection reagents (EPIgeneous™ Binding Domain kits) were purchased from Cisbio Bioassays and used according to supplier's protocol. GST tagged bromodomain proteins were purchased from BPS Bioscience and histone peptide from Genic Bio Synthetic.

[2] = biological target: Brd3(BD1) (Homo sapiens, UniProt Q15059); test: HTRF BET selectivity profile, Brd3(BD1); assay type: binding; design: GST tagged bromodomain proteins were purchased from BPS Bioscience; purchased BPS Bioscience; settings: for Ratio 3-1 vs 3-2: selectivity Brd3(BD1) vs Brd3(BD2), HTRF IC50
Chain of Brd3(BD1) (Q15059 34-140 limits assumed): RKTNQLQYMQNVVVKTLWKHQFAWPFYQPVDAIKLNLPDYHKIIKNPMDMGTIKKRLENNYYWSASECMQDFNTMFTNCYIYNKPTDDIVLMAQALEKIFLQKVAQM
Protocol: as §1, §2, §3

[3] = biological target: T2, Brd2(BD2) (Homo sapiens, UniProt P25440); test: HTRF BET selectivity profile, Brd2(BD2); assay type: binding; settings: read-out: Brd2(BD2) IC50
T2 construct: GST tagged bromodomain proteins were purchased from BPS Bioscience; purchased BPS Bioscience
T2 sequence (P25440 344-453 limits assumed): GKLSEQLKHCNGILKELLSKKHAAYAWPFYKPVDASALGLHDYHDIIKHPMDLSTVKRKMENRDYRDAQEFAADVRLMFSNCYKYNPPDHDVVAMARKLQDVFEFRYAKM
Protocol: as §1, §2, §3

[4] = biological target: T3, Brd3(BD2) (Homo sapiens, UniProt Q15059); test: HTRF BET selectivity profile, Brd3(BD2); assay type: binding
T3 construct: GST tagged bromodomain proteins were purchased from BPS Bioscience; purchased BPS Bioscience
T3 sequence (Q15059 306-415 limits assumed): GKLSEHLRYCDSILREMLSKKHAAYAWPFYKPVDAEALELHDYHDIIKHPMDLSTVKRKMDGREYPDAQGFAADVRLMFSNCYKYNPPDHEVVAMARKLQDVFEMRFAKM
Protocol: (§4) HTRF assays were performed in white 384 Well Small Volume™ HiBase Polystyrene Microplates (Greiner) with a total working volume of 20 μL. Compounds were dispensed, with 100 nL per well (0.5% final DMSO), from a concentration stock of 10 mM in 100% DMSO and with serial DMSO dilutions, using an Echo® 550 robot from the Access Labcyte platform (Labcyte) and based on the transfer of liquid by acoustic wave. Then, 19.5 μL of buffer is added, using a Multidrop Combi (Thermo Fisher Scientific). Finally, for each assay, 200 nL of master mix (protein+donor+acceptor) and 200 nL of peptide Is added in the assay wells according to the final concentration and buffer described in Table 3, using the Echo® 550 robot (Labcyte). The IC50 measurements were performed in triplicates (Table 2 and 3). All HTRF reagents (donor and acceptor) were purchased from CisBio Bioassays and reconstituted according to the supplier protocols. The peptide was purchased from Genic Bio Synthetic. The BRD4(1) protein was produced and purified in the laboratory. HTRF signals were measured, after a final incubation (3 h or 6 h or overnight at room temperature or 4° C., according to the bromodomain), using a PHERAstar FS (BMG Labtech) with an excitation filter at 337 nm and fluorescence wavelength measurement at 620 and 665 nm, an integration delay of 60 μs and an integration time of 500 μs. Results were analyzed with a two-wavelengths signal ratio: [intensity (665 nm)/intensity (620 nm)]*104.
as §2, §3

[5] = test system: Jurkat cells; test: Cell Titer-Glo cell viability assay, Jurkat; assay type: cell-based; settings: Homo sapiens, 72 h, mean of three experiments, NA = IC50 > maximal concentration used
Protocol: (§5) The human leukemia cell line Jurkat (ATCC® TIB-152) and Molm14 was maintained in RPMI-1640 medium or MEMα, respectively and supplemented both with 10% FBS at 37° C. and 5% CO2.
(§6) In antiproliferative assays, compounds were assayed for their growth inhibiting activity towards the described cancer cell lines using the Cell Titer-Glo Luminescent Cell Viability Assay as described by the manufacturer (Promega Corporation). Briefly, 10.000 cells were plated onto 96 well-plates (white with clear bottom (3610, Corning Costar)) in 90 μL media per well immediately before assay. 10 μL of compounds were added at different concentrations (ranging from 50 μM to 6 nM) to each well and cell cultures were incubated 37° C. during 72 h. Vehicle (DMSO) was used as negative control, JQ1 (a pan-BET inhibitor) was used as positive control and all compounds were tested in constant percentage of DMSO (1%). After addition of 50 μL Cell Titer-GLO, shaking 2 minutes and incubating at room temperature 10 minutes, the Luminescence was measured using a Centro luminometer LB960 (Berthold). Dose-response curves were generated and effective dose 50 values (EC50) were calculated using non-linear regression analysis (Graph Pad Prism).

[6] = test system: Molm14 cells; test: Cell Titer-Glo cell viability assay, Molm14; assay type: cell-based; settings: Homo sapiens, MOLM-14, 72 h, mean of three experiments, NA = IC50 > maximal concentration used
Protocol: as §5, §6

[7] = biological target: T4, Brd4(BD2) (Homo sapiens, UniProt O60885); test: HTRF BET selectivity profile, Brd4(BD2); assay type: binding
T4 construct: GST tagged bromodomain proteins were purchased from BPS Bioscience; purchased BPS Bioscience
Protocol: as §4, §2, §3

[8] = biological target: T5, BRD4(BD1) (Homo sapiens, UniProt O60885); test: HTRF assay, BRD4(BD1)/histone peptide interaction; assay type: binding; design: made in house; settings: for IC50: HTRF; for Ratio 4-1 vs 4-2: selectivity Brd4(BD1) vs Brd4(BD2), HTRF IC50
Protocol: as §1, §2, §3

[9] = biological target: T6, Brdt(BD1) (Homo sapiens, UniProt Q58F21); test: HTRF BET selectivity profile, Brdt(BD1); assay type: binding
T6 construct: GST tagged bromodomain proteins were purchased from BPS Bioscience; purchased BPS Bioscience
Protocol: as §4, §2, §3

[10] = biological target: T5, BRD4(BD1); test: Isothermal Titration Calorimetry; assay type: binding; settings: ITC; read-out: Binding affinity (Kd) to BRD4(1) by Isothermal Titration Calorimetry
Protocol: FIG. 1. Isothermal Titration Calorimetry (ITC) of 43c. Thermogram (top) and non-linear least squares fit model of the integrated data (bottom) at 15° C. of Brd4 (BD1) […] as a function of the molar ratio of ligand to the protein.
ITC was used to evaluate the thermodynamics parameters of the binding between BRD4 (BD1) and the selected compounds. Titrations were carried out on a MicroCal ITC200 microcalorimeter (GE Healthcare, Piscataway, N.J.). Each experiment was designed using a titrant concentration (protein in the syringe generally between 100 and 400 μM) set 10 to 15 times the analyte concentration (compound in the cell generally between 10 and 40 μM) and using 13 injections at 25° C. A first small injection (generally 0.2 μL) was included in the titration protocol in order to remove air bubbles trapped in the syringe prior titration. Raw data were scaled after setting the zero to the titration saturation heat value. Integrated raw ITC data were fitted to a one site non-linear least squares fit model using the MicroCal Origin plugin as implemented in Origin 7 (Origin Lab). Finally, ΔG and TΔS values were calculated from the fitted ΔH and KA values using the equations ΔG=−R.T.inKA and ΔG=ΔH−TΔS.

[11] = mean of three experiments, NA = IC50 > 50 μM, read-out: Brd4(8D1) IC50
[12] = triplicates, NA = IC50 > maximal concentration of compound used

T1 sequence (P25440 74-180 limits assumed): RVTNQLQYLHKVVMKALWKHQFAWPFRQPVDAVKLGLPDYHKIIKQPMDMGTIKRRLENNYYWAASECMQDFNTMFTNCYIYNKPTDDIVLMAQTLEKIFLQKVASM

Row | IC50 [1] | Ratio 2-1 vs 2-2 [1] | IC50 [2] | Ratio 3-1 vs 3-2 [2] | IC50 [3] | IC50 [4] | IC50 [5] | IC50 [6] | IC50 [7] | IC50 [8, 11] | IC50 [8, 12] | Ratio 4-1 vs 4-2 [8] | IC50 [9] | Kd [10] | Compound
1 |  |  |  |  |  |  |  | 12.2 µM |  |  | 0.75 µM |  |  |  | CCn1cnc2c1c(=O)[nH]c(=O)n2Cc1ccc(CNS(=O)(=O)c2ccc(Oc3cncc(C)n3)cc2)cc1 [Compound 42c]
2 | 0.352 µM | 6 | 0.23 µM | 14 | 1.96 µM | 3.32 µM |  | 23.7 µM | 4.24 µM | 0.123 µM | 0.123 µM | 34 | 0.397 µM | 0.17 µM | CCn1cnc2c1c(=O)[nH]c(=O)n2Cc1ccc(CNS(=O)(=O)c2ccc(C(=O)N3CCOCC3)cc2)cc1 [Compound 44b]
3 |  |  |  |  |  |  |  | 9.3 µM |  |  | 0.522 µM |  |  |  | CCn1cnc2c1c(=O)[nH]c(=O)n2Cc1ccc(CNS(=O)(=O)c2ccc(Oc3ccc(C(F)(F)F)cc3)cc2)cc1 [Compound 44c]

Further lines, the molecule ahead of its results:

Row | Compound | IC50 [1] | Ratio 2-1 vs 2-2 [1] | IC50 [2] | Ratio 3-1 vs 3-2 [2] | IC50 [3] | IC50 [4] | IC50 [5] | IC50 [6] | IC50 [7] | IC50 [8, 11] | IC50 [8, 12] | Ratio 4-1 vs 4-2 [8] | IC50 [9] | Kd [10]
4 | CCn1cnc2c1c(=O)[nH]c(=O)n2Cc1ccc(CNS(=O)(=O)c2ccn(-c3ccccc3)n2)cc1 [Compound 24b] | 3.33 µM | 2 | 1 µM | 12 | 6.05 µM | 12 µM | 14.2 µM | 10.2 µM | 5.85 µM | 0.846 µM | 0.846 µM | 7 | 6.26 µM | 
5 | CCn1cnc2c1c(=O)[nH]c(=O)n2Cc1ccc(CNS(=O)(=O)c2ccc(-c3cc(C)n[nH]3)s2)cc1 [Compound 25a] | 2.1 µM | 2 | 0.507 µM | 6 | 3.2 µM | 3.17 µM | 13.5 µM | 9.9 µM | 4.05 µM | 0.284 µM | 0.284 µM | 14 | 3.47 µM | 
6 | CCn1cnc2c1c(=O)[nH]c(=O)n2Cc1ccc(CNS(=O)(=O)c2cc3ccccc3s2)cc1 [Compound 25b] | 1.38 µM | 8 | 1.54 µM | 8 | 10.5 µM | 12.4 µM | 5.2 µM | 11.1 µM | 12.8 µM | 0.779 µM | 0.779 µM | 16 | 7.44 µM | 
7 | CCn1cnc2c1c(=O)[nH]c(=O)n2Cc1ccc(CNS(=O)(=O)c2ccc3scnc3c2)cc1 [Compound 25c] | 4.18 µM | 7 | 4.77 µM | 4 | 23.5 µM | 17.4 µM | 6.1 µM | 14.8 µM | 21.2 µM | 1.59 µM | 1.6 µM | 13 | 14 µM | 
8 | CCn1cnc2c1c(=O)[nH]c(=O)n2Cc1ccc(CNS(=O)(=O)c2cccc(-c3ccccc3)c2)cc1 [Compound 29c] | 5.47 µM | 3 | 1.6 µM | 12 | 14.7 µM | 18.9 µM | 6.9 µM | 8.9 µM | 12.2 µM | 0.814 µM | 0.814 µM | 15 | 7.44 µM | 1.1 µM
9 | CCn1cnc2c1c(=O)[nH]c(=O)n2Cc1cc(OC)c(CNS(=O)(=O)c2ccc3c(c2)CCCC(=O)N3)cc1OC [Compound 32a] |  |  |  |  |  |  | 23.3 µM | 30.2 µM |  |  | 13 µM |  |  | 
10 | CCCCc1c(C)nc2nc(SCc3nc4c(c(=O)[nH]c(=O)n4Cc4ccc(CNS(=O)(=O)c5ccc6c(c5)CCCC(=O)N6)cc4)n3CC)nn2c1C [Compound 32c, N-(4-((8-(((6-butyl-5,7-dimethyl-[1,2,4]triazolo[1,5-a]pyrimidin-2-yl)thio)methyl)-7-ethyl-2,6-dioxo-1,2,6,7-tetrahydro-3H-purin-3-yl)methyl)benzyl)-2-oxo-2,3,4,5-tetrahydro-1H-benzo[b]azepine-7-sulfonamide] | 4.67 µM | 0.7 | 4.43 µM | 1 | 3.36 µM | 4.16 µM | 32.5 µM |  | 9.15 µM | 1.08 µM | 1.1 µM | 9 | 18.9 µM | 2.1 µM

Reference: patent publication US11180510B2, “Xanthine derivatives and uses thereof as inhibitors of bromodomains of BET proteins” (Centre national de la recherche scientifique, priority 2017, dated 2021)
